{
  "source": "paper PMC2861356",
  "about": "(Clinical cancer research : an official journal of the …, 2009)",
  "key": {"[1]": {"test_system": "surgically incurable GIST", "conditions": "cited from earlier work"}, "clinical [2]": {"assay": "clinical", "conditions": "human, plasma, oral; for Cmax: Imatinib Cmax, mean ± SD; for Tmax: Imatinib tmax, median (range)"}, "[3]": {"test_system": "imatinib-resistant gastrointestinal stromal tumors (GIST)", "assay": "Tumor response", "format": "in vivo, human"}, "[4]": {"assay": "Nilotinib serum pharmacokinetics at steady-state"}, "[5]": {"test_system": "patients with advanced imatinib-resistant gastrointestinal stromal tumors (GIST)"}, "clinical [6]": {"assay": "clinical", "conditions": "human, serum, oral"}, "GIST": {"test_system": "GIST", "conditions": "GIST after imatinib; cited from earlier work"}, "[7]": {"conditions": "400 mg, Cohort 3 (n=7), imatinib 400 mg bid alone, Day -1"}, "[8]": {"conditions": "400 mg, Cohort 3 (n=7), imatinib 400 mg bid with nilotinib 400 mg qd, Day 8"}, "[9]": {"conditions": "Cohort 2 (n=6), imatinib 400 mg bid with nilotinib 200 mg qd, Day 8"}},
  "note": "Where two headings read alike, the source gives them in different places.",
  "data": [
    {"molecule": "Cc1ccc(NC(=O)c2ccc(CN3CCN(C)CC3)cc2)cc1Nc1nccc(-c2cccnc2)n1", "note": "[Imatinib]", "values": [
      {"measurement": "Patients with primary resistance within the first 6 months of therapy", "setting": "[1]; estimated", "value": "5-14%"},
      {"measurement": "Median time of therapy until secondary resistance", "setting": "[1]; most patients", "value": 2, "unit": "years"},
      {"measurement": "Median survival", "setting": "[1]; surgically incurable GIST", "value": "~5", "unit": "years"},
      {"measurement": "Tumor control rates", "setting": "[1]; surgically incurable GIST", "value": "> 80", "unit": "%"},
      {"measurement": "Cmax", "setting": "clinical [2]; 400 mg, Cohort 2 (n=6), imatinib 400 mg bid alone, Day -1", "value": "2770 ± 1140", "unit": "ng/mL"},
      {"measurement": "Cmax", "setting": "clinical [2]; [7]", "value": "4020 ± 2170", "unit": "ng/mL"},
      {"measurement": "Cmax", "setting": "clinical [2]; [8]", "value": "4200 ± 1120", "unit": "ng/mL"},
      {"measurement": "Cmax", "setting": "clinical [2]; 400 mg, Cohort 4 (n=5), imatinib 400 mg bid alone, Day -1", "value": "4170 ± 1760", "unit": "ng/mL"},
      {"measurement": "Cmax", "setting": "clinical [2]; 400 mg, Cohort 4 (n=5), imatinib 400 mg bid with nilotinib 400 mg bid, Day 8", "value": "5070 ± 2760", "unit": "ng/mL"},
      {"measurement": "Tmax", "setting": "clinical [2]; [7]", "value": 4.8, "unit": "h"},
      {"measurement": "Tmax", "setting": "clinical [2]; [8]", "value": 2.4, "unit": "h"},
      {"measurement": "Cmax", "setting": "clinical [2]; [9]", "value": "3370 ± 1120", "unit": "ng/mL"},
      {"measurement": "Tmax", "setting": "clinical [2]; [9]", "value": 2.9, "unit": "h"},
      {"measurement": "Imatinib Cavg, mean ± SD", "setting": "Cohort 2 (n=6), imatinib 400 mg bid alone, Day -1", "value": "2381 ± 1181", "unit": "ng/mL"},
      {"measurement": "Imatinib Cavg, mean ± SD", "setting": "[9]", "value": "2768 ± 1039", "unit": "ng/mL"},
      {"measurement": "Imatinib Cavg, mean ± SD", "setting": "Cohort 3 (n=7), imatinib 400 mg bid alone, Day -1", "value": "3594 ± 2195", "unit": "ng/mL"},
      {"measurement": "Imatinib Cavg, mean ± SD", "setting": "Cohort 3 (n=7), imatinib 400 mg bid with nilotinib 400 mg qd, Day 8", "value": "3735 ± 1212", "unit": "ng/mL"},
      {"measurement": "Imatinib Cavg, mean ± SD", "setting": "Cohort 4 (n=5), imatinib 400 mg bid alone, Day -1", "value": "3556 ± 1523", "unit": "ng/mL"},
      {"measurement": "Imatinib Cavg, mean ± SD", "setting": "Cohort 4 (n=5), imatinib 400 mg bid with nilotinib 400 mg bid, Day 8", "value": "4285 ± 2325", "unit": "ng/mL"}
    ]},
    {"molecule": "Cc1cn(-c2cc(NC(=O)c3ccc(C)c(Nc4nccc(-c5cccnc5)n4)c3)cc(C(F)(F)F)c2)cn1", "note": "[Nilotinib]", "values": [
      {"measurement": "Best overall response: Complete response", "setting": "[3]; Nilotinib 400 mg bid n=18", "value": "0 n (%)"},
      {"measurement": "Best overall response: Partial response", "setting": "[3]; Nilotinib 400 mg bid n=18", "value": "1 (6) n (%)"},
      {"measurement": "Best overall response: Progressive disease", "setting": "[3]; Nilotinib 400 mg bid n=18", "value": "2 (11) n (%)"},
      {"measurement": "Best overall response: Stable disease", "setting": "[3]; Nilotinib 400 mg bid n=18", "value": "13 (72) n (%)"},
      {"measurement": "Best overall response: Unknown (could not be classified)", "setting": "[3]; Nilotinib 400 mg bid n=18", "value": "1 (6) n (%)"},
      {"measurement": "Progression-free survival, Kaplan-Meier rate at 4 months", "setting": "[3]; Nilotinib 400 mg bid n=18", "value": 59, "unit": "%"},
      {"measurement": "Progression-free survival, Kaplan-Meier rate at 6 months", "setting": "[3]; Nilotinib 400 mg bid n=18", "value": 47, "unit": "%"},
      {"measurement": "Progression-free survival, median", "setting": "[3]; Nilotinib 400 mg bid n=18", "value": 168, "unit": "days"},
      {"measurement": "Progression-free survival, range", "setting": "[3]; Nilotinib 400 mg bid n=18", "value": "1 to 393", "unit": "days"},
      {"measurement": "Patients with stable disease", "setting": "[3]; all cohorts", "value": "Thirty-eight"},
      {"measurement": "Discontinuation of study for disease progression", "setting": "[3]; all cohorts, n=32", "value": 60, "unit": "%"},
      {"measurement": "Progression-free survival, range", "setting": "[3]; all patients", "value": "1 to 393", "unit": "days"},
      {"measurement": "Median progression-free survival", "setting": "[3]; entire group, all patients", "value": 134, "unit": "days"},
      {"measurement": "Stable disease lasting >6 months", "setting": "[3]; single-agent nilotinib group, 5 patients", "value": 28, "unit": "%"},
      {"measurement": "Stable disease lasting >4 months", "setting": "[3]; single-agent nilotinib group, 9 patients", "value": 50, "unit": "%"},
      {"measurement": "Slope of Cavg versus total nilotinib daily dose (power model)", "setting": "[4]; combination cohorts", "value": 0.946},
      {"measurement": "Slope of Cmax versus total nilotinib daily dose (power model)", "setting": "[4]; combination cohorts", "value": 0.881},
      {"measurement": "Nilotinib AUC0-t higher than in single-agent cohort", "setting": "[4]; nilotinib 400 mg bid combination cohorts, second value", "value": 18, "unit": "%"},
      {"measurement": "Nilotinib oral clearance, mean CL/F across the combination groups", "setting": "[4]; nilotinib with imatinib, 4 combination cohorts", "value": "19.1 to 25.6", "unit": "L/h"},
      {"measurement": "Discontinuation of study for death", "setting": "[5]; all cohorts, n=2", "value": 4, "unit": "%"},
      {"measurement": "Abdominal pain, overall frequency of AE", "setting": "[5]; human, in vivo", "value": 36, "unit": "%"},
      {"measurement": "Discontinuation of study for AEs", "setting": "[5]; human, in vivo", "value": 6, "unit": "%"},
      {"measurement": "Fatigue, overall frequency of AE", "setting": "[5]; human, in vivo", "value": 38, "unit": "%"},
      {"measurement": "Grade 3 elevations of AST or ALT", "setting": "[5]; human, in vivo", "value": "< 2", "unit": "%"},
      {"measurement": "Grade 3 or 4 laboratory abnormality: hyperbilirubinemia", "setting": "[5]; human, in vivo", "value": 8, "unit": "%"},
      {"measurement": "Grade 3 or 4 toxicities, patients overall", "setting": "[5]; human, in vivo", "value": 49, "unit": "%"},
      {"measurement": "Nausea, overall frequency of AE", "setting": "[5]; human, in vivo", "value": 36, "unit": "%"},
      {"measurement": "Post-baseline QTcF interval >480 msec", "setting": "[5]; human, in vivo", "value": 13, "unit": "%"},
      {"measurement": "QTcF >500 msec", "setting": "[5]; human, in vivo", "value": "no QTcF >500 msec was reported"},
      {"measurement": "Rash, overall frequency of AE", "setting": "[5]; human, in vivo", "value": 40, "unit": "%"},
      {"measurement": "Severe AEs (grade 3 or 4): abdominal pain", "setting": "[5]; human, in vivo", "value": 13, "unit": "%"},
      {"measurement": "Dose deemed appropriate for Phase II studies", "setting": "[5]; human, in vivo, 28 days", "value": 400, "unit": "mg bid"},
      {"measurement": "Dose-limiting toxicity: grade 3 hyperbilirubinemia, frequency", "setting": "[5]; human, in vivo, 28 days", "value": 6, "unit": "%"},
      {"measurement": "Thrombocytopenia episodes", "setting": "[5]; in vivo", "value": "no episodes of thrombocytopenia"},
      {"measurement": "AUC(0-t)", "setting": "clinical [6]", "value": "13600 ± 6620", "unit": "ng·h/mL"},
      {"measurement": "Cmax", "setting": "clinical [6]; 400 mg bid", "value": "1640 ± 828", "unit": "ng/mL"},
      {"measurement": "Tmax", "setting": "clinical [6]; 400 mg bid", "value": 2.8, "unit": "h"}
    ]},
    {"molecule": "CCN(CC)CCNC(=O)c1c(C)[nH]c(/C=C2\\C(=O)Nc3ccc(F)cc32)c1C", "note": "[Sunitinib]", "values": [
      {"measurement": "Duration of benefit of second-line therapy", "setting": "GIST", "value": "approximately 9 months"}
    ]}
  ]
}
